Measurements reported in patent US20250011330A1, “Imidazo[1,2- a]pyrazine and Imidazo[1,2- a]pyridine Based Tyrosyl-DNA Phosphodiesterase I (TDP1) Inhibitors” (The USA, As Represented by the Secretary, Department of …, priority 2021, published 2025).
Like-named read-outs stand apart in the source and are kept apart here. Each block holds one compound with its values, some of them ahead of it.

Assays:
[1] = tested on: human colon cancer cell line HCT116; experiment: Synergistic effect with camptothecin (CPT) based on cell viability; conditions: list in description
Description: The synergistic effects of the TDP1 inhibitors with CPT were tested in human colon cancer cell line HCT116 based on cell viability (Table 3, FIGS. 2-5). Cells were first seeded in a 384-well black-clear plate until 30% confluency and then incubated with a serial dilution of CPT at the range of 0-100 nM in the present or the absence of TDP1 inhibitors for 72 h at 37° C. Viable cell numbers were counted from the brightfield images taken by Biotek Cytation 5 (FIGS. 2-3). Fractional affect (Fa) and combination index (Ci) were analyzed with CompuSyn software. Synergistic scores of each TDP1 inhibitors were calculated and collected based on the data analysis from SynergyFinder (FIG. 4). […]

TOP1 = TOP1 (Homo sapiens (Human), UniProt P11387); experiment: Degradation of TOP1 in cells (western blotting); type: cell-based; conditions: list in description
TDP2 [2] = target: T1, TDP2 (Homo sapiens (Human), UniProt O95551); experiment: gel-based TDP2 fluorescence assay in vitro; type: biochemical
TDP1 [3] = target: T2, TDP1 (Homo sapiens (Human), UniProt Q9NUW8); experiment: gel-based TDP1 fluorescence assay of unpurified oxime libraries at 100 μM; type: biochemical; conditions: 100 μM in DMSO, oximes without purification
Description: The oximes were evaluated by gel-based TDP1 fluorescence assay in a concentration of 100 μM in DMSO. The fluorescence of DMSO blank vial was set as 0 and the fluorescence for the reference without TDP1 was set as 100%. Preparation: A mixture of aminooxy-containing 105 or 106 (10 μL, 30 mM in DMSO), aldehydes M1-T12 (10 μL, 30 mM in DMSO) and acetic acid (10 μL, 150 mM in DMSO) were agitated at room temperature overnight. Oximes 5-M1-T12 or 6-M1-T12 (30 uL, 10 mM in DMSO) were afforded.
Two set of oximes 105-X and 106-Y (XZ700-M1-T12, XZ699-M1-T12) ([…], 10 mM in DMSO) were prepared about 240 each starting from aminooxy-containing 105 (XZ700) or 106 (XZ699) based on the following method. A mixture of aminooxy-containing 105 or 106 (10 μL, 30 mM in DMSO) with about 240 aldehydes M1-T12 (10 μL, 30 mM in DMSO) (Table 4) separately in the present of acetic acid (10 μL, 150 mM in DMSO) were agitated at room temperature overnight in three 96-well plates in parallel. The formed oximes 105-M1 to 105-T12 and 106-M1 to 106-T12 (30 uL, 10 mM in DMSO) were diluted to 100 μM in DMSO and evaluated by gel-based TDP1 fluorescence assay. The fluorescence of the gel band of DMSO blank vial was set as 0 and the fluorescence for the reference gel band without TDP1 was set as 100%. […] Among them, with same aldehyde structures D1 and P3, both oximes 105-series (105-D1, 105-P3) and 106-series (106-D1, 106-P3) show great (>90%) TDP1 inhibition. […] To confirm the inhibitions, we have further evaluated the purified lead oximes by HPLC. (Table 7; FIG. 9)

TDP1 [4] = target: T2, TDP1; experiment: TDP1 gel-based in vitro fluorescence assay; type: biochemical
TDP1 [5] = target: T2, TDP1; experiment: Degradation assay (western blotting) of TDP1 in HCT116 and HEK293 cells; type: cell-based; conditions: for TDP1 degrading activity: list in description
Description: The degradation effect of the TDP1 inhibitors on TDP1 in human colon cancer cell line HCT116 and embryonic kidney cell line HEK293 were studied. Cells were first seeded in a 6-well plate until 60-80% confluency and then incubated with a serial dilution of TDP1 inhibitors at the range of 25-200 μM for 24-72 h at 37° C. […] Samples were then sonicated at 30% for 10 s and centrifuged for 15 min at 15000 rpm at 4 Celsius. Supernatant were collected and the concentration of total protein were measured by BCA Protein Assay Kit according to its protocols. Four micrograms of total protein for each sample were loaded and TDP1 level were conducted by western blotting.

TDP2 [6] = target: T1, TDP2; experiment: TDP2 degrading activity as stated in the description; conditions: list in description
[7] = Table 8, lead compounds with different linkers, read-out: TDP2 IC50
[8] = purified oximes and SMM leads, read-out: TDP1 IC50
[9] = Table 7, ratio of IC50 TDP2 to TDP1
[10] = Table 8, lead compounds with different linkers, read-out: TDP1 IC50
[11] = Table 7, HPLC-purified oxime leads, read-out: TDP2 IC50
[12] = Table 8, ratio of IC50 TDP2 to TDP1

T2 sequence (Q9NUW8 whole entry): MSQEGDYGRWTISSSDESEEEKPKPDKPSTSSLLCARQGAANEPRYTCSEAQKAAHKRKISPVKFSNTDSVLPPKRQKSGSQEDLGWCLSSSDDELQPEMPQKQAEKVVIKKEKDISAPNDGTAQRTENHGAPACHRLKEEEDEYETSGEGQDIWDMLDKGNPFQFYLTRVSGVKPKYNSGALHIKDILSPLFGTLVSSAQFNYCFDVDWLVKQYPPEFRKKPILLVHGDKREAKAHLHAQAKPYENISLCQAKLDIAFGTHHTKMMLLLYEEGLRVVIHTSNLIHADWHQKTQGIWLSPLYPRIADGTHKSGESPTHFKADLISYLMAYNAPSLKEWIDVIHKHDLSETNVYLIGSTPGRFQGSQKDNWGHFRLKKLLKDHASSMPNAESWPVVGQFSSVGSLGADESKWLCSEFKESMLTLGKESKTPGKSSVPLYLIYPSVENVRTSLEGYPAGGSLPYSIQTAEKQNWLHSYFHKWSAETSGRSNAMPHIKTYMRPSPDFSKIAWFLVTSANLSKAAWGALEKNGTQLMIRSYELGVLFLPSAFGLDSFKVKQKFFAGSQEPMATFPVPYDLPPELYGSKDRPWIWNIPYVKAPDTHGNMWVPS
T1 sequence (O95551 whole entry, species assumed): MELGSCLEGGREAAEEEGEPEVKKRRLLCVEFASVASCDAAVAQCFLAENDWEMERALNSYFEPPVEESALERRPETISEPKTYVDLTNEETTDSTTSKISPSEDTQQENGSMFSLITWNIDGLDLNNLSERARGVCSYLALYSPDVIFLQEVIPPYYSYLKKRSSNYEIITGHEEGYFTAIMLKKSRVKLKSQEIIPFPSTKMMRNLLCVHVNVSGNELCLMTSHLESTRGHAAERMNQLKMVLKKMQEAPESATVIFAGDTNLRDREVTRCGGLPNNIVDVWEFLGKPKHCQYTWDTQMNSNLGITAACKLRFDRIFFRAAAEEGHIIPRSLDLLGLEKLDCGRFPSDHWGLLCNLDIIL

Compound: 4-((2-(4-(2-((4-(5-((λ^2-Azaneylidene)-λ^3-methyl)pyridin-2-yl)phenyl)methoxy)ethyl)phenyl)-7-phenylimidazo[1,2-a]pyridin-3-yl)amino)benzoic acid [XZ726]
- synergy with camptothecin [1]: exhibit synergy with camptothecin
- TOP1 degrading activity (TOP1): exhibit TOP1 degrading activity
- IC50 (TDP2 [2]; [7]): > 100 µM

Compound: N#Cc1ccc(-c2ccc(C=NOCc3ccc4nc(-c5ccccc5)c(Nc5ccc(C(=O)O)cc5)n4c3)cc2)nc1 [Compound 105-D1, 4-((6-((((4-(5-cyanopyridin-2-yl)benzylidene)amino)oxy)methyl)-2-phenylimidazo[1,2-a]pyridin-3-yl)amino)benzoic acid]
- inhibition at 100 µM (TDP1 [3]): > 90%

Compound: Cc1cncc(Oc2ccc(C=NOCc3ccc4nc(-c5ccccc5)c(Nc5ccc(C(=O)O)cc5)n4c3)cc2)n1 [Compound 105-P3, 4-((6-((((4-((6-methylpyrazin-2-yl)oxy)benzylidene)amino)oxy)methyl)-2-phenylimidazo[1,2-a]pyridin-3-yl)amino)benzoic acid]
- inhibition at 100 µM (TDP1 [3]): > 90%
- IC50 (TDP1 [4]; [8]): > 100 µM

Compound: O=C(O)c1ccc(Nc2c(-c3ccc(CON=Cc4ccc(N5CCCC5=O)cc4)cc3)nc3cc(-c4ccccc4)ccn23)cc1 [Compound 106-B7, 4-((2-(4-((((4-(2-oxopyrrolidin-1-yl)benzylidene)amino)oxy)methyl)phenyl)-7-phenylimidazo[1,2-a]pyridin-3-yl)amino)benzoic acid]
- TDP1 inhibition (TDP1 [3]): good inhibition

Compound: N#Cc1ccc(-c2ccc(C=NOCc3ccc(-c4nc5cc(-c6ccccc6)ccn5c4Nc4ccc(C(=O)O)cc4)cc3)cc2)nc1 [Compound 106-D1, 4-((2-(4-((((4-(5-cyanopyridin-2-yl)benzylidene)amino)oxy)methyl)phenyl)-7-phenylimidazo[1,2-a]pyridin-3-yl)amino)benzoic acid]
- inhibition at 100 µM (TDP1 [3]): > 90%

Compound: O=C(O)c1ccc(Nc2c(-c3ccc(CON=Cc4ccc(-c5cnccn5)cc4)cc3)nc3cc(-c4ccccc4)ccn23)cc1 [Compound 106-E6, 4-((7-phenyl-2-(4-((((4-(pyrazin-2-yl)benzylidene)amino)oxy)methyl)phenyl)imidazo[1,2-a]pyridin-3-yl)amino)benzoic acid]
- TDP1 inhibition (TDP1 [3]): good inhibition

Compound: O=C(O)c1ccc(Nc2c(-c3ccc(CON=Cc4ccc(-c5ccccc5)cc4)cc3)nc3cc(-c4ccccc4)ccn23)cc1 [Compound 106-M10, 4-((2-(4-(((([1,1′-biphenyl]-4-ylmethylene)amino)oxy)methyl)phenyl)-7-phenylimidazo[1,2-a]pyridin-3-yl)amino)benzoic acid]
- TDP1 inhibition (TDP1 [3]): poor inhibition

Compound: Cc1cncc(Oc2ccc(C=NOCc3ccc(-c4nc5cc(-c6ccccc6)ccn5c4Nc4ccc(C(=O)O)cc4)cc3)cc2)n1 [Compound 106-P3, 4-((2-(4-((((4-((6-methylpyrazin-2-yl)oxy)benzylidene)amino)oxy)methyl)phenyl)-7-phenylimidazo[1,2-a]pyridin-3-yl)amino)benzoic acid]
- inhibition at 100 µM (TDP1 [3]): > 90%

Compound: N#Cc1ccc(-c2ccc(/C=N/OCc3ccc(-c4nc5cc(-c6ccccc6)ccn5c4Nc4ccc(C(=O)O)cc4)cc3)cc2)nc1 [XZ701, (E)-4-((2-(4-((((4-(5-Cyanopyridin-2-yl)benzylidene)amino)oxy)methyl)phenyl)-7-phenylimidazo[1,2-a]pyridin-3-yl)amino)benzoic acid]
- synergy with camptothecin [1]: exhibit synergy with camptothecin
- selectivity against TDP1 than against TDP2 (TDP1 [4]): 74 fold
- FC (fold change) (TDP1 [4]; [9]): 74
- IC50 (TDP1 [4]; [10]): 0.38 ± 0.06 µM
- TDP1 inhibition relative to SMM lead 3 (TDP1 [4]; fold more than SMM lead 3): 10 fold
- IC50 (TDP1 [4]; [8]): 0.38 ± 0.06 µM
- TDP1 degrading activity (TDP1 [5]): exhibit TDP1 degrading activity
- TOP1 degrading activity (TOP1): exhibit TOP1 degrading activity
- TDP2 degrading activity (TDP2 [6]): exhibit TDP2 degrading activity
- IC50 (TDP2 [2]; [11]): 28.1 ± 8.9 µM

Compound: O=C(O)c1ccc(Nc2c(-c3ccc(CO/N=C/c4ccc(-c5cnccn5)cc4)cc3)nc3cc(-c4ccccc4)ccn23)cc1 [XZ702, (E)-4-((7-Phenyl-2-(4-((((4-(pyrazin-2-yl)benzylidene)amino)oxy)methyl)phenyl)imidazo[1,2-a]pyridin-3-yl)amino)benzoic acid]
- synergy with camptothecin [1]: exhibit synergy with camptothecin
- FC (fold change) (TDP1 [4]; [9]): 3
- IC50 (TDP1 [4]; [8]): 3.1 ± 0.5 µM
- TDP2 degrading activity (TDP2 [6]): exhibit TDP2 degrading activity
- IC50 (TDP2 [2]; [11]): 8.8 ± 2.9 µM
- IC50 (TDP2 [2]; purified oximes, read-out: TDP2 IC50): 8.8 ± 2.9 µM

Compound: N#Cc1ccc(-c2ccc(Cn3cc(-c4ccc(-c5nc6ccccn6c5Nc5ccc(C(=O)O)cc5)cc4)nn3)cc2)nc1 [XZ719, 4-((2-(4-(1-(4-(5-Cyanopyridin-2-yl)benzyl)-1H-1,2,3-triazol-4-yl)phenyl)imidazo[1,2-a]pyridin-3-yl)amino)benzoic acid]
- synergy with camptothecin [1]: exhibit synergy with camptothecin
- IC50 (TDP1 [4]; [10]): 21.6 ± 5 µM
- FC (fold change) (TDP1 [4]; [12]): 3
- TDP2 degrading activity (TDP2 [6]): exhibit TDP2 degrading activity
- IC50 (TDP2 [2]; [7]): 62.4 ± 18.6 µM

Compound: O=C(O)c1ccc(Nc2c(-c3ccccc3OS(=O)(=O)F)nc3cc(-c4ccccc4)ccn23)cc1 [XZ730, 4-((2-(2-((Fluorosulfonyl)oxy)phenyl)-7-phenylimidazo[1,2-a]pyridin-3-yl)amino)benzoic acid]
- IC50 (TDP1 [4]): 17.8 µM
- inhibition of TDP1, primary screen (TDP1 [4]; 111 μM, preincubation with TDP1 at room temperature overnight): inhibition
- selectivity compared with TDP2, secondary screen (TDP1 [4]; preincubation overnight at room temperature): 2 fold
- inhibition, secondary screen (TDP1 [4]; preincubation with TDP overnight at room temperature): μM inhibition
- TDP1 degradation by covalent inhibitors (TDP1 [5]; FIG. 39): degrade TDP1
- TDP1 degrading activity (TDP1 [5]): exhibit TDP1 degrading activity
- TDP2 degrading activity (TDP2 [6]): exhibit TDP2 degrading activity
- IC50 (TDP2 [2]): 39.5 µM
- inhibition of TDP2, primary screen (TDP2 [2]; 111 μM, preincubation with TDP2 at room temperature overnight): inhibition

More lines, now with the values ahead:

- TDP1 degrading activity (TDP1 [5]): exhibit TDP1 degrading activity
- TOP1 degrading activity (TOP1): exhibit TOP1 degrading activity
- IC50 (TDP2 [2]; Table 10, PROTACs, read-out: TDP2 IC50): > 100 µM
Compound: Cc1ncsc1-c1ccc(CNC(=O)[C@@H]2C[C@@H](O)CN2C(=O)[C@@H](NC(=O)COCCOCCn2cc(COc3ccc(-c4nc5cc(-c6ccccc6)ccn5c4Nc4ccc(C(=O)O)cc4)cc3)nn2)C(C)(C)C)cc1 [XZ679, 4-((2-(4-((1-(2-(2-(2-(((S)-1-((2S,4R)-4-Hydroxy-2-((4-(4-methylthiazol-5-yl)benzyl)carbamoyl)pyrrolidin-1-yl)-3,3-dimethyl-1-oxobutan-2-yl)amino)-2-oxoethoxy)ethoxy)ethyl)-1H-1,2,3-triazol-4-yl)methoxy)phenyl)-7-phenylimidazo[1,2-a]pyridin-3-yl)amino)benzoic acid]

- IC50 (TDP1 [4]; [10]): 5.95 ± 1.25 µM
- FC (fold change) (TDP1 [4]; [12]): 3
- TDP1 degrading activity (TDP1 [5]): exhibit TDP1 degrading activity
- TOP1 degrading activity (TOP1): exhibit TOP1 degrading activity
- TDP2 degrading activity (TDP2 [6]): exhibit TDP2 degrading activity
- IC50 (TDP2 [2]; [7]): 18 ± 1.2 µM
Compound: N#Cc1ccc(-c2ccc(Cn3cc(-c4ccn5c(Nc6ccc(C(=O)O)cc6)c(-c6ccccc6)nc5c4)nn3)cc2)nc1 [XZ722, 4-((7-(1-(4-(5-Cyanopyridin-2-yl)benzyl)-1H-1,2,3-triazol-4-yl)-2-phenylimidazo[1,2-a]pyridin-3-yl)amino)benzoic acid]
